# Measured values as given in ChEMBL document CHEMBL5154662, “Discovery of BP3 as an efficacious proteolysis targeting chimera (PROTAC) degrader of HSP90 for treating breast cancer” (Eur J Med Chem, 2022).
# Activity calls are given as the source filed them. No cut-off for these calls is given here.
# Columns and labels:
# MDA-MB-231 = test: Antiproliferative activity against human MDA-MB-231 cells assessed as inhibition of cell proliferation incubated for 72 hrs by MTT assay; assay type: functional, cell-based; details: MDA-MB-231, 72 h
# MCF7 [1] = test: Antiproliferative activity against human MCF-7 cells assessed as inhibition of cell proliferation incubated for 72 hrs by MTT assay; assay type: functional, cell-based; details: MCF7, 72 h
# 4T1 [2] = test: Anticancer activity against mouse 4T1 cells assessed as inhibition of cell proliferation measured after 72 hrs by MTT assay; assay type: functional, cell-based; details: 4T1, 72 h
# MCF7 [3] = test: Anticancer activity against human MCF7 cells assessed as inhibition of colony formation at 2 to 10 uM measured after 48 hrs by crystal violet staining based assay; assay type: functional, cell-based; details: dose 2-10 µM, DDE = dose-dependent effect
# 4T1 [4] = test: Antitumor activity against female BALB/c mouse xenografted with 4T1 cells assessed as tumor growth inhibition at 60 mg/kg, ip administered daily for 12 days relative to control; assay type: functional; details: 4T1, 288 h, time 12 day, read-out: TGI
# MDA-MB-468 = test: Anticancer activity against human MDA-MB-468 cells assessed as inhibition of cell proliferation measured after 72 hrs by MTT assay; assay type: functional, cell-based; details: MDA-MB-468, 72 h
# [5] = molecular target: T1, Protein cereblon/Heat shock protein HSP 90-alpha/Heat shock protein HSP 90-beta (Homo sapiens, UniProt P07900+P08238+Q96SW2); test: Protac activity at CRBN/HSP90 in human MCF7 cells assessed as HSP90 degradation measured after 6 hrs by western blot analysis; assay type: cell-based
# 4T1 [6] = test: Antitumor activity against female BALB/c mouse xenografted with 4T1 cells assessed as reduction on tumor formation at 40 mg/kg, ip administered daily for 12 days; assay type: functional, organism-based; details: time 12.0 day
# [7] = Toxicity in BALB/c mouse assessed as death at 40 mg/kg, ip administered daily for 12 days; assay type: organism-based; details: in vivo, 288 h, time 12 day
# Heat shock protein HSP90 = Heat shock protein HSP90 (Homo sapiens, UniProt P07900+P08238); test: Binding affinity to HSP90 (unknown origin) upto 250 uM by BLI assay; assay type: protein assay
# [8] = molecular target: T1, Protein cereblon/Heat shock protein HSP 90-alpha/Heat shock protein HSP 90-beta; test: Protac activity at CRBN/HSP90 in human MCF7 cells assessed as reduction in HSP90 protein expression level at 2 uM followed by cycloheximide addition measured upto 12 hrs by western blot analysis; assay type: cell-based
# [9] = AUCinfinity in rat at 15 mg/kg, ip measured after 8 hrs; assay type: ADME, organism-based; design: dose 15 mg/kg, time 8 hrs, route ip; details: in vivo
# [10] = molecular target: T1, Protein cereblon/Heat shock protein HSP 90-alpha/Heat shock protein HSP 90-beta; test: Protac activity at CRBN/HSP90 in human MCF7 cells assessed as reduction in HSP90 mRNA expression level at 2 uM followed by cycloheximide addition measured upto 12 hrs by qRT-PCR analysis; assay type: cell-based
# 4T1 [11] = test: Antitumor activity against female BALB/c mouse xenografted with 4T1 cells assessed as tumor growth inhibition at 40 mg/kg, ip administered daily for 12 days relative to control; assay type: functional; details: 4T1, 288 h, time 12 day, read-out: TGI
# [12] = molecular target: T1, Protein cereblon/Heat shock protein HSP 90-alpha/Heat shock protein HSP 90-beta; test: Protac activity at CRBN/HSP90 in human MCF7 cells assessed as reduction in HSP90 protein expression level at 2 uM measured after 6 hrs by western blot analysis; assay type: cell-based
# [13] = molecular target: T1, Protein cereblon/Heat shock protein HSP 90-alpha/Heat shock protein HSP 90-beta; test: Protac activity at CRBN/HSP90 in human MCF7 cells assessed as maximum degradation of HSP90 measured after 6 hrs by western blot analysis relative to control; assay type: cell-based
# [14] = molecular target: Heat shock protein HSP 90-alpha (Homo sapiens) (UniProt P07900); test: Degradation of HSP90alpha in human MCF7 cells at 2 uM measured after 6 hrs by western blot analysis; assay type: cell-based
# [15] = Half life in rat at 15 mg/kg, ip measured after 8 hrs; assay type: ADME, organism-based; details: in vivo
# 4T1 [16] = test: Antitumor activity against female BALB/c mouse xenografted with 4T1 cells assessed as reduction on tumor weight at 40 mg/kg, ip administered daily for 12 days; assay type: functional, organism-based; details: time 12.0 day
# [17] = molecular target: T1, Protein cereblon/Heat shock protein HSP 90-alpha/Heat shock protein HSP 90-beta; test: Protac activity at CRBN/HSP90 in human MCF7 cells assessed as reduction in AKT protein expression level at 2 uM measured after 6 hrs by western blot analysis; assay type: cell-based
# [18] = molecular target: T1, Protein cereblon/Heat shock protein HSP 90-alpha/Heat shock protein HSP 90-beta; test: Protac activity at CRBN/HSP90 in human MCF7 cells assessed as reduction in p53 protein expression level at 2 uM measured after 6 hrs by western blot analysis; assay type: cell-based
# [19] = Tmax in rat at 15 mg/kg, ip measured after 8 hrs; assay type: ADME, organism-based; details: in vivo
# [20] = AUC in rat at 15 mg/kg, ip measured after 8 hrs; assay type: ADME, organism-based; design: dose 15 mg/kg, time 8 hrs, route ip; details: in vivo
# [21] = Cmax in rat at 15 mg/kg, ip measured after 8 hrs; assay type: ADME, organism-based; design: time 8 hrs, dose 15 mg/kg, route ip; details: in vivo
# [22] = Toxicity in BALB/c mouse assessed as body weight loss at 40 mg/kg, ip administered daily for 12 days measured once every 3 days; assay type: organism-based; details: in vivo, 288 h, time 12 day
# T1 sequence (P08238 whole entry, other chains not shown): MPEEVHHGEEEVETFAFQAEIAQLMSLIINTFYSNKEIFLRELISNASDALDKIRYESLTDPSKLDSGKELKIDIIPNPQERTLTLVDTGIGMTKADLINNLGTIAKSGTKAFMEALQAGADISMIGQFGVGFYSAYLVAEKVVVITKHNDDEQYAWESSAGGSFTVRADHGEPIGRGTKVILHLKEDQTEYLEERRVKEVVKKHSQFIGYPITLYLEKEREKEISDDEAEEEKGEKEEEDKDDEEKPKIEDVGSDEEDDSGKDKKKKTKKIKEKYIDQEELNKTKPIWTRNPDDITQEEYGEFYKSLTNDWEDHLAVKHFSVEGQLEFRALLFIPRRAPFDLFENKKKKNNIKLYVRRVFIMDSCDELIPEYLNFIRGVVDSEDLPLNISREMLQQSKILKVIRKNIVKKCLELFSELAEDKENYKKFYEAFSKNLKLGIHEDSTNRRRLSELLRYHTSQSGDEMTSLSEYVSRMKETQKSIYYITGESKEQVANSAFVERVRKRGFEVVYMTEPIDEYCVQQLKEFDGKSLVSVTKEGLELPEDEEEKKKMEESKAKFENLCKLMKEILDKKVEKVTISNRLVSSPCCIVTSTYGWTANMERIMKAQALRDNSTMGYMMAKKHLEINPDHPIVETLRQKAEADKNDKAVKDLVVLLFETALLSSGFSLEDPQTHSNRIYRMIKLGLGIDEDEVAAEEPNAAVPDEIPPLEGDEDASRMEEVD
# T1 sequence (Q96SW2 whole entry, other chains not shown): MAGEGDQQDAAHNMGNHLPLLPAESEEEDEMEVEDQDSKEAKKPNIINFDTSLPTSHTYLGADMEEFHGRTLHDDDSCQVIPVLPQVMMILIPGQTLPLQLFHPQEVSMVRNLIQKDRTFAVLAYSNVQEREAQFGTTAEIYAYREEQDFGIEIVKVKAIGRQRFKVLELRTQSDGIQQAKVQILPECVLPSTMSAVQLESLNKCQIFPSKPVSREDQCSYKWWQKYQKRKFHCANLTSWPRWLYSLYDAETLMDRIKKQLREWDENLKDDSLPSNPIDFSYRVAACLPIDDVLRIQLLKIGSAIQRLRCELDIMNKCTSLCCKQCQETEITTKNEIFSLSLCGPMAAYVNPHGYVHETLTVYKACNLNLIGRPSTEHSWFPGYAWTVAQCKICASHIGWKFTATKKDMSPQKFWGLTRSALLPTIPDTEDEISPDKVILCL
smiles,measurement,setting,value
COc1cc(C(=O)NCCOCCOCC#Cc2cn(Cc3ncc(C)c(OC)c3C)c3nc(N)nc(Cl)c23)ccc1NC(=O)[C@@H]1N[C@@H](CC(C)(C)C)[C@](C#N)(c2ccc(Cl)cc2F)[C@H]1c1cccc(Cl)c1F,IC50,MDA-MB-231,72.1 µM
same,IC50,MCF7 [1],32.9 µM
COc1cc(C(=O)NCCOCCOCCOCCOCC#Cc2cn(Cc3ncc(C)c(OC)c3C)c3nc(N)nc(Cl)c23)ccc1NC(=O)[C@@H]1N[C@@H](CC(C)(C)C)[C@](C#N)(c2ccc(Cl)cc2F)[C@H]1c1cccc(Cl)c1F,IC50,MDA-MB-231,> 100 µM
same,IC50,MCF7 [1],> 100 µM
COc1c(C)cnc(Cn2cc(C#CCCNc3cccc4c3C(=O)N(C3CCC(=O)N(C)C3=O)C4=O)c3c(Cl)nc(N)nc32)c1C (configuration not stated),IC50,MDA-MB-231,7.77 µM
same,IC50,MCF7 [1],2.46 µM
COc1c(C)cnc(Cn2cc(C#CCOCCOCCOCCOCCOCCNc3cccc4c3C(=O)N(C3CCC(=O)NC3=O)C4=O)c3c(Cl)nc(N)nc32)c1C (configuration not stated),IC50,MDA-MB-231,3.87 µM
same,IC50,MCF7 [1],5.63 µM
COc1c(C)cnc(Cn2cnc3c(Cl)nc(N)nc32)c1C [BIIB021],IC50,4T1 [2],0.55 µM
same,Activity,MCF7 [3],Dde
same,inhibition in vivo at 60 mg/kg,4T1 [4],31.8%
same,IC50,MDA-MB-231,7.72 µM
same,IC50,MCF7 [1],1.12 µM
same,IC50,MDA-MB-468,2.52 µM
COc1c(C)cnc(Cn2cc(C#CCCCNc3cccc4c3C(=O)N(C3CCC(=O)NC3=O)C4=O)c3c(Cl)nc(N)nc32)c1C (configuration not stated),IC50,MDA-MB-231,5.2 µM
same,IC50,MCF7 [1],1.45 µM
COc1cc(C(=O)NCCCCC#Cc2cn(Cc3ncc(C)c(OC)c3C)c3nc(N)nc(Cl)c23)ccc1NC(=O)[C@@H]1N[C@@H](CC(C)(C)C)[C@](C#N)(c2ccc(Cl)cc2F)[C@H]1c1cccc(Cl)c1F,IC50,MDA-MB-231,> 100 µM
same,IC50,MCF7 [1],> 100 µM
COc1cc(C(=O)NCCOCC#Cc2cn(Cc3ncc(C)c(OC)c3C)c3nc(N)nc(Cl)c23)ccc1NC(=O)[C@@H]1N[C@@H](CC(C)(C)C)[C@](C#N)(c2ccc(Cl)cc2F)[C@H]1c1cccc(Cl)c1F,IC50,MDA-MB-231,65.9 µM
same,IC50,MCF7 [1],71.7 µM
COc1cc(C(=O)NCCOCCOCCOCCOCCOCCOCC#Cc2cn(Cc3ncc(C)c(OC)c3C)c3nc(N)nc(Cl)c23)ccc1NC(=O)[C@@H]1N[C@@H](CC(C)(C)C)[C@](C#N)(c2ccc(Cl)cc2F)[C@H]1c1cccc(Cl)c1F,IC50,MDA-MB-231,> 100 µM
same,IC50,MCF7 [1],> 100 µM
COc1c(C)cnc(Cn2cc(C#CCOCCOCCOCCOCCOCCOCCNc3cccc4c3C(=O)N(C3CCC(=O)NC3=O)C4=O)c3c(Cl)nc(N)nc32)c1C (configuration not stated),IC50,MDA-MB-231,3.88 µM
same,IC50,MCF7 [1],3.14 µM
COc1c(C)cnc(Cn2cc(C#CCCNc3cccc4c3C(=O)N(C3CCC(=O)NC3=O)C4=O)c3c(Cl)nc(N)nc32)c1C (configuration not stated),DC50,[5],0.99 µM
same,Activity,4T1 [6],Active
same,Activity,[7],Non-Toxic
same,IC50,4T1 [2],0.61 µM
same,Kd,Heat shock protein HSP90,1.18 10^-4M
same,Activity,[8],Active
same,AUC,[9],2080 ng·h/mL
same,Activity,[10],Active
same,inhibition in vivo at 40 mg/kg,4T1 [11],76.4%
same,Activity,MCF7 [3],Dde
same,Activity,[12],Active
same,Emax,[13],83.4%
same,Activity,[14],Active
same,half-life,[15],4.5 h
same,Activity,4T1 [16],Active
same,Activity,[17],Active
same,Activity,[18],Active
same,IC50,MDA-MB-231,3.53 µM
same,Tmax,[19],1.85 h
same,IC50,MCF7 [1],0.63 µM
same,AUC,[20],1360 ng·h/mL
same,IC50,MDA-MB-468,2.95 µM
same,Cmax,[21],260 ng/mL
same,Activity,[22],19.7%
COc1c(C)cnc(Cn2cc(C#CCNc3cccc4c3C(=O)N(C3CCC(=O)NC3=O)C4=O)c3c(Cl)nc(N)nc32)c1C (configuration not stated),IC50,MDA-MB-231,20.6 µM
same,IC50,MCF7 [1],1.98 µM
COc1c(C)cnc(Cn2cc(C#CCOCCOCCOCCOCCNc3cccc4c3C(=O)N(C3CCC(=O)NC3=O)C4=O)c3c(Cl)nc(N)nc32)c1C (configuration not stated),IC50,MDA-MB-231,9.48 µM
same,IC50,MCF7 [1],6.12 µM
COc1c(C)cnc(Cn2cc(C#CCOCCOCCOCCNc3cccc4c3C(=O)N(C3CCC(=O)NC3=O)C4=O)c3c(Cl)nc(N)nc32)c1C (configuration not stated),IC50,MDA-MB-231,4.85 µM
same,IC50,MCF7 [1],2.24 µM
COc1c(C)cnc(Cn2cc(C#CCOCCNc3cccc4c3C(=O)N(C3CCC(=O)NC3=O)C4=O)c3c(Cl)nc(N)nc32)c1C (configuration not stated),IC50,MDA-MB-231,0.44 µM
same,IC50,MCF7 [1],0.19 µM
COc1c(C)cnc(Cn2cc(C#CCCCCNc3cccc4c3C(=O)N(C3CCC(=O)NC3=O)C4=O)c3c(Cl)nc(N)nc32)c1C (configuration not stated),IC50,MDA-MB-231,2.2 µM
same,IC50,MCF7 [1],0.25 µM
COc1cc(C(=O)NCCOCCOCCOCC#Cc2cn(Cc3ncc(C)c(OC)c3C)c3nc(N)nc(Cl)c23)ccc1NC(=O)[C@@H]1N[C@@H](CC(C)(C)C)[C@](C#N)(c2ccc(Cl)cc2F)[C@H]1c1cccc(Cl)c1F,IC50,MDA-MB-231,> 100 µM
same,IC50,MCF7 [1],> 100 µM
COc1c(C)cnc(Cn2cc(C#CCOCCOCCNc3cccc4c3C(=O)N(C3CCC(=O)NC3=O)C4=O)c3c(Cl)nc(N)nc32)c1C (configuration not stated),IC50,MDA-MB-231,0.76 µM
same,IC50,MCF7 [1],0.98 µM
COc1cc(C(=O)NCCOCCOCCOCCOCCOCC#Cc2cn(Cc3ncc(C)c(OC)c3C)c3nc(N)nc(Cl)c23)ccc1NC(=O)[C@@H]1N[C@@H](CC(C)(C)C)[C@](C#N)(c2ccc(Cl)cc2F)[C@H]1c1cccc(Cl)c1F,IC50,MDA-MB-231,> 100 µM
same,IC50,MCF7 [1],> 100 µM
COc1cc(C(=O)NCCCC#Cc2cn(Cc3ncc(C)c(OC)c3C)c3nc(N)nc(Cl)c23)ccc1NC(=O)[C@@H]1N[C@@H](CC(C)(C)C)[C@](C#N)(c2ccc(Cl)cc2F)[C@H]1c1cccc(Cl)c1F,IC50,MDA-MB-231,> 100 µM
same,IC50,MCF7 [1],97.3 µM
COc1cc(C(=O)NCC#Cc2cn(Cc3ncc(C)c(OC)c3C)c3nc(N)nc(Cl)c23)ccc1NC(=O)[C@@H]1N[C@@H](CC(C)(C)C)[C@](C#N)(c2ccc(Cl)cc2F)[C@H]1c1cccc(Cl)c1F,IC50,MDA-MB-231,> 100 µM
same,IC50,MCF7 [1],20.9 µM
COc1cc(C(=O)NCCC#Cc2cn(Cc3ncc(C)c(OC)c3C)c3nc(N)nc(Cl)c23)ccc1NC(=O)[C@@H]1N[C@@H](CC(C)(C)C)[C@](C#N)(c2ccc(Cl)cc2F)[C@H]1c1cccc(Cl)c1F,IC50,MDA-MB-231,> 100 µM
same,IC50,MCF7 [1],37.9 µM
Nc1cccc2c1C(=O)N(C1CCC(=O)NC1=O)C2=O (configuration not stated) [POMALIDOMIDE],IC50,MDA-MB-231,> 100 µM
same,IC50,MCF7 [1],> 100 µM
